Tested on: HeLa
Assay: Photocytotoxicity against human HeLa cells assessed as survival-fraction per unit uptake measured as concentration in incubation medium necessary to produce cell uptake of 0.3 nmol per mg of protein at which survival fraction was determined after 24 hrs in presence of 10 J/cm2 light
Type: functional

Structure (SMILES) | survival fraction
CC1(C)Cc2cc3[nH]c(cc4nc(cc5[nH]c(cc1n2)cc5C(=O)O)CC4(C)C)cc3C(=O)O | 0.35
CC1(C)Cc2cc3[nH]c(cc4nc(cc5[nH]c(cc1n2)cc5C(=O)NCCN)CC4(C)C)cc3C(=O)NCCN | 0.88
CC1(C)Cc2cc3[nH]c(cc4nc(cc5[nH]c(cc1n2)cc5CN(CCO)CCO)CC4(C)C)cc3CN(CCO)CCO | 0.04
COCCOCCOCCOCCNCc1cc(CNCCOCCOCCOCCOC)cc(-c2c3nc(cc4[nH]c(cc4-c4ccc(C)cc4)c(OC)c4nc(cc5[nH]c2cc5-c2ccc(C)cc2)C(C)(C)C4)C(C)(C)C3)c1 | 0.1
CC1(C)Cc2cc3[nH]c(cc4nc(cc5[nH]c(cc1n2)cc5-c1cc(OCCO)cc(OCCO)c1)CC4(C)C)cc3-c1cc(OCCO)cc(OCCO)c1 | 0.001
CC1(C)Cc2cc3[nH]c(cc4nc(cc5[nH]c(cc1n2)cc5-c1cc(O)cc(O)c1)CC4(C)C)cc3-c1cc(O)cc(O)c1 | 0.01
CC1(C)Cc2cc3[nH]c(cc4nc(cc5[nH]c(cc1n2)cc5C#CC[N+](C)(C)C)CC4(C)C)cc3C#CC[N+](C)(C)C.[Cl-].[Cl-] | 0.6
CC1(C)Cc2cc3[nH]c(cc4nc(cc5[nH]c(cc1n2)cc5C(=O)N(CCN)CCN)CC4(C)C)cc3C(=O)N(CCN)CCN | 0.9
CC1(C)Cc2cc3[nH]c(cc4nc(cc5[nH]c(cc1n2)cc5C(=O)N1CC[N+](C)(C)CC1)CC4(C)C)cc3C(=O)N1CC[N+](C)(C)CC1.[Cl-].[Cl-] | 1
CC1(C)Cc2cc3[nH]c(cc4nc(cc5[nH]c(cc1n2)cc5C(=O)/C=C/c1cc(O)cc(O)c1)CC4(C)C)cc3C(=O)/C=C/c1cc(O)cc(O)c1 | 0.23
COCCN(CCOC)C(=O)c1cc2cc3nc(cc4[nH]c(cc5nc(cc1[nH]2)CC5(C)C)cc4C(=O)N(CCOC)CCOC)CC3(C)C | 0.02
